Test systems include 786-0 renal; NCI-H23 lung; A498 renal; MOLT-4 leukemia; OVCAR-8 ovarian; SK-MEL-2 melanoma; SW-620 colon; KM12 colon; A549 NSCLC.
Common to all, as to experiment: NCI anticancer screen, dose series, 48 h

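48-hour exposure; five concentrations; linearly interpolated endpoints. At the GI50, growth is halved. TGI: total growth inhibition.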

On to `COCCOC(=O)CCn1cc(F)c(=O)[nH]c1=O`, for which the GI50 was 8.12 µg/mL in the assay on 786-0 renal; 17.2 µg/mL in the assay with NCI-H23 lung; 0.989 µg/mL in the assay with A498 renal; 19.7 µg/mL in the assay with MOLT-4 leukemia; 32 µg/mL in the assay on OVCAR-8 ovarian; more than 150 µg/mL in the assay on SK-MEL-2 melanoma. Moreover, the figures for the GI50 in the assay on SW-620 colon, in the assay on KM12 colon and in the assay with A549 NSCLC were 26.9 µg/mL, 5.93 µg/mL and 1.79 µg/mL, respectively. The TGI in the assay on 786-0 renal, with NCI-H23 lung, in the assay with A498 renal, in the assay with MOLT-4 leukemia, with OVCAR-8 ovarian and in the assay on SK-MEL-2 melanoma was more than 150 µg/mL each time. Moreover, the TGI with SW-620 colon, in the assay with KM12 colon and in the assay with A549 NSCLC was more than 150 µg/mL throughout.
On to `N#CC(C#N)=C/C=C/c1cccc([N+](=O)[O-])c1`, for which the GI50 in the assay on 786-0 renal was 1.51 µM; with NCI-H23 lung, 1.59 µM; in the assay on A498 renal, 1.99 µM; in the assay with MOLT-4 leukemia, 0.391 µM; in the assay with OVCAR-8 ovarian it was 0.329 µM; in the assay on SW-620 colon, 0.914 µM. The GI50 was 1.28 µM in the assay on KM12 colon and 2.29 µM in the assay on A549 NSCLC. Moreover, the TGI with 786-0 renal is 3.17 µM; in the assay on NCI-H23 lung, 4.26 µM; with A498 renal it was 5.21 µM; in the assay on MOLT-4 leukemia, 13.6 µM; with OVCAR-8 ovarian it was 1.36 µM; in the assay with SW-620 colon, 2.57 µM. In addition, the results for the TGI in the assay with KM12 colon and in the assay with A549 NSCLC were 3.2 µM and 16.8 µM, respectively.
Regarding `OCC(O)C(OC1OC(CO)C(O)C(O)C1O)c1nn(-c2ccc(F)cc2)c2nc3cc(Cl)c(Cl)cc3cc12` (stereo not drawn), the TGI in the assay with 786-0 renal, in the assay on NCI-H23 lung, in the assay on A498 renal, in the assay with MOLT-4 leukemia, in the assay on OVCAR-8 ovarian and with KM12 colon was more than 100 µM throughout.
For `Fc1cc(Nc2ccc3c(OCCCN4CCOCC4)cccc3n2)ccc1Cl`, the GI50 in the assay on 786-0 renal is 1.79 µM; with NCI-H23 lung, 2.21 µM; with A498 renal it was 2.42 µM; in the assay with MOLT-4 leukemia it was 1.68 µM; in the assay with OVCAR-8 ovarian, 4.03 µM; in the assay on SK-MEL-2 melanoma, 1.96 µM. The figures for the GI50 in the assay on KM12 colon and in the assay on A549 NSCLC were 2.3 µM and 2.96 µM, respectively. In addition, the TGI in the assay on 786-0 renal was found to be 3.53 µM; in the assay on NCI-H23 lung, 5.38 µM; in the assay with A498 renal it was 6.73 µM; in the assay on MOLT-4 leukemia, 3.88 µM; in the assay on OVCAR-8 ovarian it was 15.3 µM; with SK-MEL-2 melanoma, 4.04 µM. In addition, the values for the TGI with KM12 colon and in the assay on A549 NSCLC were 5.46 µM and 8.47 µM, respectively.
For `CN(C)c1ccc(/C=N/Nc2ccc(-c3nc4ccccc4[nH]3)cc2)cc1`, the GI50 is 10.6 µM in the assay on 786-0 renal; 13.8 µM in the assay on NCI-H23 lung; 9.79 µM in the assay on OVCAR-8 ovarian; 8.27 µM in the assay on SK-MEL-2 melanoma; 18.9 µM with SW-620 colon; 9.81 µM in the assay with KM12 colon. For the same molecule, the GI50 in the assay with A549 NSCLC was 9.33 µM. In addition, the TGI in the assay with 786-0 renal is 38.6 µM; in the assay on NCI-H23 lung, 45.5 µM; with OVCAR-8 ovarian, 32.4 µM; with SK-MEL-2 melanoma it was 26.4 µM; in the assay on SW-620 colon it was more than 50 µM; with KM12 colon, more than 50 µM. For the same molecule, in the assay with A549 NSCLC, the TGI amounted to 27.1 µM.
Consider `NC(=O)c1ccc(NC(=O)c2oc3ccccc3c2-c2cnn(-c3ccccc3)c2)cc1`, for which the GI50 with 786-0 renal was 5.41 µM; in the assay on NCI-H23 lung it was 6 µM; with A498 renal, 60.8 µM; in the assay with MOLT-4 leukemia it was more than 100 µM; in the assay on OVCAR-8 ovarian, more than 100 µM; in the assay on SK-MEL-2 melanoma it was 20.4 µM. For the same molecule, the GI50 in the assay with SW-620 colon and with KM12 colon was more than 100 µM throughout. Further, the TGI in the assay with 786-0 renal is more than 85.2 µM; with NCI-H23 lung it was more than 100 µM; in the assay on A498 renal, more than 100 µM; in the assay with MOLT-4 leukemia it was more than 100 µM; in the assay on OVCAR-8 ovarian, more than 100 µM; in the assay on SK-MEL-2 melanoma, more than 100 µM. Also, the TGI in the assay with SW-620 colon and in the assay with KM12 colon was more than 100 µM in each case.
On to `Fc1ccc(-c2c(-c3ccncc3)n(CCN3CCOCC3)c3cccnc23)cc1`, for which the GI50 in the assay on 786-0 renal, in the assay with NCI-H23 lung, in the assay on A498 renal, in the assay with MOLT-4 leukemia, with OVCAR-8 ovarian and in the assay on SK-MEL-2 melanoma was more than 25 µM each time. Further, the GI50 with SW-620 colon, in the assay on KM12 colon and with A549 NSCLC was more than 25 µM each time. The TGI in the assay on 786-0 renal, in the assay on NCI-H23 lung, with A498 renal, in the assay on MOLT-4 leukemia, in the assay on OVCAR-8 ovarian and with SK-MEL-2 melanoma was more than 25 µM in each case. Moreover, the TGI in the assay on SW-620 colon, in the assay on KM12 colon and with A549 NSCLC was more than 25 µM throughout.
Consider `NC(=O)c1ccc(-c2c3ccccc3cc3c2ccc2ccccc23)cc1`, for which the GI50 is 3.64 µM with 786-0 renal; 10.7 µM in the assay with NCI-H23 lung; 3.71 µM with A498 renal; 5.5 µM in the assay with MOLT-4 leukemia; 6.51 µM in the assay with OVCAR-8 ovarian; 2.56 µM in the assay on SW-620 colon. Moreover, the GI50 was 1.32 µM with KM12 colon and 4.7 µM in the assay on A549 NSCLC. The TGI was 14.8 µM with 786-0 renal; 84.4 µM with NCI-H23 lung; 24 µM in the assay on A498 renal; more than 100 µM with MOLT-4 leukemia; 36.3 µM with OVCAR-8 ovarian; 19.7 µM in the assay on SW-620 colon. Moreover, the TGI in the assay on KM12 colon was 15.2 µM; in the assay on A549 NSCLC, 24.7 µM.
Consider `O=C(N/N=C\c1cc(Cl)ccc1O)N/N=C/c1cc(Cl)ccc1O`, for which the GI50 in the assay on 786-0 renal was more than 100 µM; in the assay with NCI-H23 lung, 2.34 µM; with A498 renal, more than 100 µM; in the assay on MOLT-4 leukemia, 57.5 µM; in the assay on OVCAR-8 ovarian, 1.77 µM; with SK-MEL-2 melanoma, more than 100 µM. For the same molecule, the GI50 in the assay on SW-620 colon is 0.807 µM; in the assay on KM12 colon it was 13.1 µM; in the assay with A549 NSCLC it was 0.521 µM. The TGI with 786-0 renal, with NCI-H23 lung, in the assay with A498 renal, in the assay with MOLT-4 leukemia, in the assay with OVCAR-8 ovarian and in the assay with SK-MEL-2 melanoma was more than 100 µM each time. For the same molecule, the TGI in the assay on SW-620 colon, in the assay with KM12 colon and in the assay with A549 NSCLC was more than 100 µM each time.

For the origin of these results see PubChem BioAssay (NCI).
